“And” between values parts separate entries of the source, which are not always exact repeats. Identical values can stand only once.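 Each compound was tested at five concentrations against cells in 96-well plates for 48 hours. GI50: concentration for 50% inhibition of growth. TGI is the concentration that stops growth completely.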
What was measured:
Assay in all cases: inhibition of tumour cell growth, NCI panel, 48 h
BT-549 breast = test system: BT-549 breast
CAKI-1 renal = test system: CAKI-1 renal
MDA-MB-435 = test system: MDA-MB-435
MOLT-4 leukemia = test system: MOLT-4 leukemia
OVCAR-3 ovarian = test system: OVCAR-3 ovarian
SF-295 CNS = test system: SF-295 CNS
SR leukemia = test system: SR leukemia
SW-620 colon = test system: SW-620 colon
A498 renal = test system: A498 renal
HS 578T breast = test system: HS 578T breast

Row | SMILES | TGI (BT-549 breast) | GI50 (CAKI-1 renal) | TGI (CAKI-1 renal) | TGI (MDA-MB-435) | GI50 (MOLT-4 leukemia) | TGI (MOLT-4 leukemia) | GI50 (OVCAR-3 ovarian) | TGI (OVCAR-3 ovarian) | TGI (SF-295 CNS) | GI50 (SR leukemia) | TGI (SR leukemia) | TGI (SW-620 colon) | GI50 (A498 renal) | TGI (A498 renal) | GI50 (BT-549 breast) | GI50 (HS 578T breast) | TGI (HS 578T breast) | GI50 (SF-295 CNS) | GI50 (MDA-MB-435) | GI50 (SW-620 colon)
1 | CC(C)c1cc(CNc2nc(Nc3cc(C4CC4)[nH]n3)cc(N3CCN(C)CC3)n2)on1 | > 10 µM and 1.4 µM | 1880 nM and 1120 nM | > 10 µM and 4.09 µM | > 10 µM and 5.54 µM | 2.71 µM and 0.477 µM | > 10 µM and 8.44 µM | 2.14 µM and 0.256 µM | > 10 µM and 4.1 µM | > 10 µM and 2.77 µM | 42.2 nM and < 19.8 nM | 3.42 µM and 1.47 µM | > 10 µM and 10.8 µM | – | – | – | – | – | – | – | –
2 | COc1ccc(NC(=O)Nc2ccc(Nc3nc(C)cc(Nc4ccc(C)cc4)n3)cc2)cc1 | 4.24 µM | – | – | – | 0.257 µM | 0.75 µM | 1.35 µM | 2.81 µM | 3.18 µM | – | – | – | 7.29 µM | 18.8 µM | 1.88 µM | 2.22 µM | 5.4 µM | 1.71 µM | – | –
3 | CCOC(=O)CNC(=O)CCCn1c(=O)c2c3ccccc3n(C)c2n2nnc(-c3ccccc3)c12 | – | 8370 nM | 20 µM | > 50 µM | > 50 µM | > 50 µM | 12.5 µM | 48.8 µM | 17.4 µM | – | – | > 50 µM | 7.29 µM | 24.6 µM | – | 4.51 µM | > 50 µM | 4.83 µM | > 50000 nM | > 50 µM
4 | CCOC(=O)c1cc2cc(NC(=O)c3cc4cc([N+](=O)[O-])ccc4n3C)ccc2n1C | 35.3 µM | 30900 nM | > 100 µM | > 100 µM | 30.9 µM | > 100 µM | 31.7 µM | > 100 µM | > 100 µM | – | – | > 100 µM | – | – | 11.6 µM | 97.5 µM | > 100 µM | 30.1 µM | 60900 nM | 93.5 µM
5 | CC(C)=CCC/C(C)=C/CC/C(=C/COP(=O)(OCc1ccc([N+](=O)[O-])o1)N(C)CCCCCl)CC=C(C)C (configuration not stated) | 7 µM | 4060 nM | 19.7 µM | 23.7 µM | 4.14 µM | > 100 µM | 11.6 µM | 29.4 µM | 26 µM | 3020 nM | > 100 µM | 6.98 µM | – | – | 2.31 µM | – | – | 7.14 µM | 4980 nM | 2.92 µM
6 | CC(F)(F)c1cc(F)ccc1-c1sc2cc(O)ccc2c1Oc1ccc(/C=C/C(=O)O)cc1 | 27 µM | 6260 nM | 20.2 µM | 5.51 µM | 10.3 µM | 50 µM | 8.81 µM | 20.9 µM | 20.5 µM | 3660 nM | > 100 µM | 24.9 µM | – | – | 6.46 µM | 4.89 µM | 32.8 µM | 5.23 µM | 2230 nM | 8.56 µM
7 | COc1cc(-c2nc(SCC(=O)Nc3ccc(C(C)=O)cc3)[nH]c(=O)c2C#N)cc(OC)c1OC | 99.7 µM | – | – | 87.6 µM | 36.4 µM | > 100 µM | 34 µM | > 100 µM | > 100 µM | 19000 nM | > 100 µM | > 100 µM | 21.3 µM | 85 µM | 32 µM | – | – | 43 µM | 24400 nM | 46.7 µM
8 | BrC(Br)(Br)c1cnc2ccccc2n1 | 6.84 µM | 1520 nM | 4.41 µM | 6.29 µM | 2.46 µM | 8.54 µM | 1.5 µM | 3.04 µM | 15.4 µM | 1790 nM | 5.81 µM | – | 9 µM | 21.2 µM | 2.4 µM | 2.47 µM | 7 µM | 3.75 µM | 2140 nM | –
9 | CC12CCc3ccccc3C1=Nc1ccccc12 (configuration not stated) | 95.6 µM | – | 51.6 µM | 82.6 µM | – | 58.5 µM | – | 66.5 µM | > 100 µM | – | > 100 µM | > 100 µM | – | – | – | – | 46.7 µM | – | – | –
10 | Cc1ccc(C2SCc3nc4ccc(C(=O)c5ccccc5)cc4n32)cc1 (configuration not stated) | 18.4 µM | 457 nM | 4.26 µM | 11.4 µM | 14.8 µM | > 100 µM | 6.72 µM | 21.9 µM | 33 µM | – | – | > 39.1 µM | 13.5 µM | 36.3 µM | 4.8 µM | 22.2 µM | 68.9 µM | 8.21 µM | 2830 nM | 3.69 µM
11 | COc1cc(OC)c(OC)cc1/C=C1\C=Cc2ccccc21 | – | – | – | 14.5 µM | – | 44.4 µM | – | – | 57.6 µM | – | > 100 µM | 35.4 µM | – | – | – | – | 96.2 µM | – | – | –
12 | COC(=O)[C@@H](Cc1c[nH]c2ccccc12)NC(=O)/C=C/c1ccccc1 | 71.8 µM | 3420 nM | > 100 µM | 3.91 µM | 3.57 µM | > 100 µM | 2.83 µM | 7.78 µM | – | 2980 nM | 11.6 µM | > 100 µM | 0.511 µM | 6.75 µM | 4.1 µM | 1.81 µM | 7.88 µM | – | 782 nM | 4.07 µM
13 | NC1=NC2(O)c3ccccc3C(=O)C2(O)N1 (configuration not stated) | – | – | > 100 µM | – | – | > 100 µM | – | > 100 µM | > 100 µM | – | > 100 µM | > 100 µM | – | > 100 µM | – | – | – | – | – | –
14 | COc1ccc2[nH]c(-c3cccc(N(C)C)c3)cc(=O)c2c1 | – | 418 nM | > 100 µM | 0.213 µM and 0.202 µM | – | 2.71 µM and 1.56 µM | – | 0.368 µM | – | – | 1.73 µM | > 100 µM | – | – | – | – | 0.509 µM | 3.71 µM | 44.4 nM | 0.303 µM
15 | Fc1ccc(F)c(C2SCc3nc4ccccc4n32)c1 (configuration not stated) | – | – | > 100 µM | – | – | 91.6 µM | – | > 100 µM | > 100 µM | – | > 100 µM | > 100 µM | – | > 100 µM | – | – | – | – | – | –
16 | COc1cc2nc(-c3ccc(-n4cncc4-c4ccc(N)cc4)cc3)sc2c(OC)c1OC | – | 1410 nM | 5.85 µM | – | – | – | 2.73 µM | 15.1 µM | 7.14 µM | – | – | – | 2.13 µM | > 100 µM | – | 5.36 µM | 49.7 µM | 1.53 µM | – | –
17 | Cc1c(C2Cc3ccccc3N2C(=O)/C=C\C(=O)O)c2ccccc2n1C (configuration not stated) | – | – | 78.7 µM | – | – | 93.3 µM | – | 43.1 µM | 50.4 µM | – | 85.8 µM | 41.5 µM | – | 66.3 µM | – | – | – | – | – | –

Source: PubChem BioAssay (NCI)
